# Biological target: human ACC2 (Homo sapiens (Human), UniProt O00763)
# Assay: ACC2 assay, spectrophotometric 384 well assay (NADH-linked, coupled lactate dehydrogenase/pyruvate kinase reaction)
# Assay type: biochemical
# Details: hACC2 construct lacking the 128 N-terminal amino acids; 25° C., 340 nm over 15 minutes
# Method in brief: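 N-terminally truncated human ACC2 (lacking 128 residues) expressed in insect cells; coupled PK/LDH read-out of ADP as NADH loss at 340 nm, 15 min, 25 °C. Tris pH 7.5 with citrate and KHCO3; 200 μM acetyl-CoA, 500 μM ATP, 1% DMSO.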
# Chain of human ACC2 (O00763 129-2458): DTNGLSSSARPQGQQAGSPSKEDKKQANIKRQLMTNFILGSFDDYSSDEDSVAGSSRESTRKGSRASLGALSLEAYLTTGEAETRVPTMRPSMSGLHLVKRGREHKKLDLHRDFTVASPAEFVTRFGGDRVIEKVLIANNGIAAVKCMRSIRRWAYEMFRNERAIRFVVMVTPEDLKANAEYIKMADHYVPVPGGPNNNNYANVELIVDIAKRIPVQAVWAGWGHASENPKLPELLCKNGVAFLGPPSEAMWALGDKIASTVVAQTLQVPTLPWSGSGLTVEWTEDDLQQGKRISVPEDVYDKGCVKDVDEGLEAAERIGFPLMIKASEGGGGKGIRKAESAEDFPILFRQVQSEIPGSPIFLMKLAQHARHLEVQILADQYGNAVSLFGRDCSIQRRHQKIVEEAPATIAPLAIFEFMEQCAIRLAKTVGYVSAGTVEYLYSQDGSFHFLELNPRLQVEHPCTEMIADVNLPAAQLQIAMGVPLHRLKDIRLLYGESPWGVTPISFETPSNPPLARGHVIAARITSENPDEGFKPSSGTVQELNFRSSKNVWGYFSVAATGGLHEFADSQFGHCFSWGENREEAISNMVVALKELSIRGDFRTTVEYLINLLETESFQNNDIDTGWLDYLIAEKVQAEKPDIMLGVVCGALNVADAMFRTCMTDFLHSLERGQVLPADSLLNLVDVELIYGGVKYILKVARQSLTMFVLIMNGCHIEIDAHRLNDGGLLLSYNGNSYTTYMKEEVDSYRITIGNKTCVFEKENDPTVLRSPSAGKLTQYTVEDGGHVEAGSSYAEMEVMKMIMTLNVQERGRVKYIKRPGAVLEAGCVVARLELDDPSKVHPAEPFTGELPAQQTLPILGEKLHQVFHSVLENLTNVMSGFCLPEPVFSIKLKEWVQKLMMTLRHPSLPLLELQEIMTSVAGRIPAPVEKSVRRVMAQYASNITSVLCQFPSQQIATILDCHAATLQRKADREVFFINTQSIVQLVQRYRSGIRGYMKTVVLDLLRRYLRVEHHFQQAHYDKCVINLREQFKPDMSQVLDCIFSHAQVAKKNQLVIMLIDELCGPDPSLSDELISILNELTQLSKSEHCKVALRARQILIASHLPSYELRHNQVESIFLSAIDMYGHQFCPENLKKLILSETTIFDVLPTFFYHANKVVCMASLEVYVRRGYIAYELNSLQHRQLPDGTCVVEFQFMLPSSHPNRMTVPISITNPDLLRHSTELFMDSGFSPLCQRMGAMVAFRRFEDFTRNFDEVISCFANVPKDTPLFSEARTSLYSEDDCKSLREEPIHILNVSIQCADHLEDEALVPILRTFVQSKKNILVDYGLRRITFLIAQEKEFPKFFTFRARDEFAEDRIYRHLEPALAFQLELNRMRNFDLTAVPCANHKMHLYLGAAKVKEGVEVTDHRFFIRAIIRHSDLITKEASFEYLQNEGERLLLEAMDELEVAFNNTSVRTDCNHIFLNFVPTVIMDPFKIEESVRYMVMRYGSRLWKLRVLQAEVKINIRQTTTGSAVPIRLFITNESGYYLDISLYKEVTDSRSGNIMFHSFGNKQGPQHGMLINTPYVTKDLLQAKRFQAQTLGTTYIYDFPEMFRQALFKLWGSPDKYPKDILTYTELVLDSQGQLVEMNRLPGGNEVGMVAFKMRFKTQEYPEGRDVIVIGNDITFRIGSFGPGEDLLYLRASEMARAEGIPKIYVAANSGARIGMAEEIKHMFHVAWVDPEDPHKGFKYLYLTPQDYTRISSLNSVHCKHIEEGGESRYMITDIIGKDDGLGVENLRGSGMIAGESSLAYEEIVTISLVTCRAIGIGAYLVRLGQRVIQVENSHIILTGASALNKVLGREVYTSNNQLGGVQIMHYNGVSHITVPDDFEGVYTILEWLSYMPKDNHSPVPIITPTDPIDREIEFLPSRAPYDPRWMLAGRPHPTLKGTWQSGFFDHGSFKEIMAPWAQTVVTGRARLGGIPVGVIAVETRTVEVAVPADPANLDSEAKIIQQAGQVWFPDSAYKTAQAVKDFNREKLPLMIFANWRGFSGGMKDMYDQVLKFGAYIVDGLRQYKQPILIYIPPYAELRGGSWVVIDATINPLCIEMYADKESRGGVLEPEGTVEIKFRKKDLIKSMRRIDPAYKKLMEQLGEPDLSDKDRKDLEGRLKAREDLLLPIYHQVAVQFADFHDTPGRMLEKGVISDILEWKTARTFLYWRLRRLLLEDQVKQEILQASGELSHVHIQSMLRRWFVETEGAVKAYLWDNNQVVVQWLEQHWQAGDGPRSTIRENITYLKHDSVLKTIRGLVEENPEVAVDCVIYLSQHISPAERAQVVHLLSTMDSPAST
row,Structure (SMILES),IC50 [nM]
1,CCOc1ccc(C#Cc2ccc(CC(C)NC(=O)C(=O)CC)cc2)cc1 (stereo not drawn) [Example 4.24],1000
2,CCCCC(=O)NC(C)Cc1ccc(C#Cc2ccc(OCC)cc2)cc1 (stereo not drawn) [Example 4.25],540
3,CCOc1ccc(C#Cc2ccc(CC(C)NC(=O)C(F)F)cc2)cc1 (stereo not drawn) [Example 4.26],230
4,CCOc1ccc(C#Cc2ccc(CC(C)NC(=O)CNC)cc2)cc1 (stereo not drawn) [Example 4.29],2700
5,CCOc1ccc(C#Cc2ccc(CC(C)NC(=O)C(O)C(C)C)cc2)cc1 (stereo not drawn) [Example 4.30],1700
6,CCOc1ccc(C#Cc2ccc(CC(C)NC(=O)CF)cc2)cc1 (stereo not drawn) [Example 4.31],410
7,CCOc1ccc(C#Cc2ccc(CC(C)NC(=O)C3CNC(=O)C3)cc2)cc1 (stereo not drawn) [Example 4.32],440
8,CCOc1ccc(C#Cc2ccc(CC(C)NC(=O)C3CCOC3)cc2)cc1 (stereo not drawn) [Example 4.33],490
9,CCOc1ccc(C#Cc2ccc(CC(C)NC(=O)C3CNC3)cc2)cc1 (stereo not drawn) [Example 4.34],600
10,CCOc1ccc(C#Cc2ccc(CC(C)NC(=O)C3CC3C)cc2)cc1 (stereo not drawn) [Example 4.35],380
11,CCOc1ccc(C#Cc2ccc(CC(C)NC(=O)C3CCCO3)cc2)cc1 (stereo not drawn) [Example 4.37],900
12,CCOc1ccc(C#Cc2ccc(CC(C)NC(=O)c3cnco3)cc2)cc1 (stereo not drawn) [Example 4.38],170
13,C=CC(=O)NC(C)c1ccc(C#Cc2ccc(OCC)cc2)cc1 (stereo not drawn) [Example 4.39],710
14,CCOc1ccc(C#Cc2ccc(C(C)NC(=O)C(C)O)cc2)cc1 (stereo not drawn) [Example 4.40],3700
15,CCOc1ccc(C#Cc2ccc(C(C)NC(=O)C3CC3)cc2)cc1 (stereo not drawn) [Example 4.41],2000
16,CCOc1ccc(C#Cc2ccc(C(C)NC(=O)CCO)cc2)cc1 (stereo not drawn) [Example 4.43],11000
17,CCOc1ccc(C#Cc2ccc(C(C)NC(=O)C3(C)CC3)cc2)cc1 (stereo not drawn) [Example 4.44],1500
18,CCOc1ccc(C#Cc2ccc(C(C)NC(=O)c3cnco3)cc2)cc1 (stereo not drawn) [Example 4.45],530
19,CCOc1ccc(C#Cc2ccc(C(C)NC(=O)C(C)OCC(F)(F)F)cc2)cc1 (stereo not drawn) [Example 4.46],8500
20,CCOc1ccc(C#Cc2ccc(C(C)NC(=O)c3ccccn3)cc2)cc1 (stereo not drawn) [Example 4.47],2700
21,CCOc1ccc(C#Cc2ccc(C(C)NC(=O)CO)cc2)cc1 (stereo not drawn) [Example 4.48],3900

row,Structure (SMILES),IC50 [nM]
1,CCOc1ccc(C#Cc2ccc(CC(C)NC(=O)C(C)(C)F)cc2)cc1 (stereo not drawn) [Example 4.49],8700
2,CCOc1ccc(C#Cc2ccc(CC(C)NC(=O)[C@H](C)OC)cc2)cc1 (stereo partly drawn) [Example 4.50],6300
3,CCOc1ccc(C#Cc2ccc(CC(C)NC(=O)C3(C)COC3)cc2)cc1 (stereo not drawn) [Example 4.51],510
4,CCOc1ccc(C#Cc2ccc(CC(C)NC(=O)c3c(C)noc3N)cc2)cc1 (stereo not drawn) [Example 4.52],5100
5,CCOc1ccc(C#Cc2ccc(C(C)NC(=O)c3cncs3)cc2)cc1 (stereo not drawn) [Example 4.53],370
6,CCOc1ccc(C#Cc2ccc(C(C)NC(=O)c3cocn3)cc2)cc1 (stereo not drawn) [Example 4.54],30000
7,CCOc1ccc(C#Cc2ccc(C(C)NC(=O)c3cn[nH]c3)cc2)cc1 (stereo not drawn) [Example 4.55],330
8,CCOc1ccc(C#Cc2ccc(CC(C)NC(=O)c3cocn3)cc2)cc1 (stereo not drawn) [Example 4.56],5600
9,CCOc1ccc(C#Cc2ccc(CC(C)NC(=O)c3oc(C)nc3C)cc2)cc1 (stereo not drawn) [Example 4.57],990
10,CCOc1ccc(C#Cc2ccc(CC(C)NC(=O)C3CCNC3=O)cc2)cc1 (stereo not drawn) [Example 4.58],680
11,CCOc1ccc(C#Cc2ccc(CC(C)NC(=O)c3ccco3)cc2)cc1 (stereo not drawn) [Example 4.59],110
12,CCOc1ccc(C#Cc2ccc(CC(C)NC(=O)c3ncn[nH]3)cc2)cc1 (stereo not drawn) [Example 4.60],24700
13,CCOc1ccc(C#Cc2ccc(CC(C)NC(=O)C(=O)N(C)C)cc2)cc1 (stereo not drawn) [Example 4.61],10100
14,CCOc1ccc(C#Cc2ccc(CC(C)NC(=O)C3CC(=O)N(C)C3)cc2)cc1 (stereo not drawn) [Example 4.62],3700
15,CCOc1ccc(C#Cc2ccc(CC(C)NC(=O)C3(C#N)CC3)cc2)cc1 (stereo not drawn) [Example 4.63],920
16,CCOc1ccc(C#Cc2ccc(CC(C)NC(=O)C3CCC(=O)NC3)cc2)cc1 (stereo not drawn) [Example 4.64],5100
17,CCOc1ccc(C#Cc2ccc(CC(C)NC(=O)c3ccon3)cc2)cc1 (stereo not drawn) [Example 4.65],1100
18,CCOc1ccc(C#Cc2ccc(CC(C)NC(=O)c3cnc[nH]3)cc2)cc1 (stereo not drawn) [Example 4.66],4700
19,CCOc1ccc(C#Cc2ccc(CC(C)NC(=O)c3cncs3)cc2)cc1 (stereo not drawn) [Example 4.67],70
20,CCOc1ccc(C#Cc2ccc(CC(C)NC(=O)c3cc[nH]c3)cc2)cc1 (stereo not drawn) [Example 4.68],450
21,CCOc1ccc(C#Cc2ccc(CC(C)NC(=O)c3cn[nH]c3)cc2)cc1 (stereo not drawn) [Example 4.69],70

row,Structure (SMILES),IC50 [nM]
1,CCOc1ccc(C#Cc2ccc(CC(C)NC(=O)CCNC(C)=O)cc2)cc1 (stereo not drawn) [Example 4.70],1300
2,CCOc1ccc(C#Cc2ccc(CC(C)NC(=O)c3ocnc3C)cc2)cc1 (stereo not drawn) [Example 4.71],430
3,CCOc1ccc(C#Cc2ccc(CC(C)NC(=O)c3cnon3)cc2)cc1 (stereo not drawn) [Example 4.72],940
4,CCOc1ccc(C#Cc2ccc(CC(C)NC(=O)c3nc[nH]n3)cc2)cc1 (stereo not drawn) [Example 4.73],19200
5,CCOc1ccc(C#Cc2ccc(CC(C)NC(=O)C3CCNC3)cc2)cc1 (stereo not drawn) [Example 4.74],2800
6,CCOc1ccc(C#Cc2ccc(C(C)NC(=O)C3CC3C)cc2)cc1 (stereo not drawn) [Example 4.75],15400
7,CC(CNC(=O)CC#N)c1ccc(C#Cc2cnc(OC3CCC3)nc2)cc1 (stereo not drawn) [Example 4.76],660
8,CC(CNC(=O)c1cn[nH]c1)c1ccc(C#Cc2cnc(OC3CCC3)nc2)cc1 (stereo not drawn) [Example 4.77],460
9,CCC(=O)NCC(C)c1ccc(C#Cc2cnc(OC3CCC3)nc2)cc1 (stereo not drawn) [Example 4.78],290
10,CC(CNC(=O)C(F)F)c1ccc(C#Cc2cnc(OC3CCC3)nc2)cc1 (stereo not drawn) [Example 4.79],160
11,COc1ncc(C#Cc2ccc(C(C)CNC(=O)c3cn[nH]c3)cc2)cn1 (stereo not drawn) [Example 4.80],7700
12,CCOc1ccc(C#Cc2ccc(CC(C)NS(=O)(=O)C3CC3)cc2)cc1 (stereo not drawn) [Example 5.1],250
13,CCOc1ccc(C#Cc2ccc(C(C)NS(=O)(=O)CC3CC3)cc2)cc1 (stereo not drawn) [Example 5.2],7200
14,CCCS(=O)(=O)NC(C)Cc1ccc(C#Cc2ccc(OCC)cc2)cc1 (stereo not drawn) [Example 5.3],1200
15,CCOc1ccc(C#Cc2ccc(CC(C)NS(C)(=O)=O)cc2)cc1 (stereo not drawn) [Example 5.4],330
16,CCOc1ccc(C#Cc2ccc(C(C)NC(=O)Nc3ccc(N(C)C)cc3)cc2)cc1 (stereo not drawn) [Example 6.1],30000
17,CCOc1ccc(C#Cc2ccc(C(C)NC(=O)Nc3cccnc3)cc2)cc1 (stereo not drawn) [Example 6.2],2200
18,CCNC(=O)NC(C)Cc1ccc(C#Cc2ccc(OCC)cc2)cc1 (stereo not drawn) [Example 6.3],230
19,CCOc1ccc(C#Cc2ccc(C(C)NC(=O)NCC(=O)O)cc2)cc1 (stereo not drawn) [Example 6.4],9600
20,"CCOc1ccc(C#Cc2ccc(C(C)NC(=O)N(C)C)cc2)cc1 (stereo not drawn) [Example 7.1, 3-(1-(4-((4-Ethoxyphenyl)ethynyl)phenyl)ethyl)-1,1-dimethylurea]",620
21,CCOc1ccc(C#Cc2ccc(CC(C)NC(=O)N(C)C)cc2)cc1 (stereo not drawn) [Example 7.2],190

row,Structure (SMILES),IC50 [nM]
1,CCOc1ccc(C#Cc2ccc(CC(C)NC(=O)N(C)CC)cc2)cc1 (stereo not drawn) [Example 7.3],360
2,"CC(=O)NC(C)Cc1ccc(C#Cc2ccc(C(=O)N3CCCCC3)cc2)cc1 (stereo not drawn) [Example 8.1, N-(1-(4-((4-(piperidine-1-carbonyl)phenyl)ethynyl)phenyl)propan-2-yl)acetamide]",500
3,CC(=O)NC(C)Cc1ccc(C#Cc2ccc(C(=O)N(C)Cc3nc(C)oc3C)cc2)cc1 (stereo not drawn) [Example 8.2],5600
4,CC(=O)NC(C)Cc1ccc(C#Cc2ccc(C(=O)NCc3cccnc3)cc2)cc1 (stereo not drawn) [Example 8.3],13000
5,CC(=O)NC(C)Cc1ccc(C#Cc2ccc(C(=O)NC3CCCC3)cc2)cc1 (stereo not drawn) [Example 8.4],1600
6,CC(=O)NC(C)Cc1ccc(C#Cc2ccc(C(=O)NCC3CC3)cc2)cc1 (stereo not drawn) [Example 8.6],1500
7,CC(=O)NC(C)Cc1ccc(C#Cc2ccc(C(=O)NCC3CCCO3)cc2)cc1 (stereo not drawn) [Example 8.7],26300
8,CC(=O)NC(C)Cc1ccc(C#Cc2ccc(C(=O)N(C)Cc3ccccc3)cc2)cc1 (stereo not drawn) [Example 8.9],3700
9,CCCN(C)C(=O)c1ccc(C#Cc2ccc(CC(C)NC(C)=O)cc2)cc1 (stereo not drawn) [Example 8.10],1100
10,CC(=O)NC(C)Cc1ccc(C#Cc2ccc(C(=O)NCc3ccncc3)cc2)cc1 (stereo not drawn) [Example 8.11],16600
11,CC(=O)NC(C)Cc1ccc(C#Cc2ccc(C(=O)N3Cc4ccccc4C3)cc2)cc1 (stereo not drawn) [Example 8.12],1500
12,CC(=O)NC(C)Cc1ccc(C#Cc2ccc(C(=O)N(C)C3CCCC3)cc2)cc1 (stereo not drawn) [Example 8.13],2400
13,CC(=O)NC(C)Cc1ccc(C#Cc2ccc(C(=O)N(C)Cc3cccnc3)cc2)cc1 (stereo not drawn) [Example 8.14],11500
14,CC(=O)NC(C)Cc1ccc(C#Cc2ccc(C(=O)N3CCC3)cc2)cc1 (stereo not drawn) [Example 8.15],2200
15,CC(=O)NC(C)Cc1ccc(C#Cc2ccc(C(=O)N3CCC(C)(C)CC3)cc2)cc1 (stereo not drawn) [Example 8.16],1900
16,CCNC(=O)c1ccc(C#Cc2ccc(CC(C)NC(C)=O)cc2)cc1 (stereo not drawn) [Example 8.17],4400
17,CC(=O)NC(C)Cc1ccc(C#Cc2cccc(C(=O)NCC(F)(F)F)c2)cc1 (stereo not drawn) [Example 8.18],7700
18,CC(=O)NC(C)Cc1ccc(C#Cc2ccc(C(=O)N(C)c3ccccc3)cc2)cc1 (stereo not drawn) [Example 8.19],4600
19,CC(=O)NC(C)Cc1ccc(C#Cc2ccc(C(=O)NC(C)C)cc2)cc1 (stereo not drawn) [Example 8.20],4400
20,CC(=O)NC(C)Cc1ccc(C#Cc2ccc(C(=O)NC3CCC3)cc2)cc1 (stereo not drawn) [Example 8.21],1400
21,CC(=O)NC(C)Cc1ccc(C#Cc2cccc(C(=O)N(C)CCO)c2)cc1 (stereo not drawn) [Example 8.22],6500
